Results reported in patent US20240025862A1, “SUBSTITUTED N-PHENYLURACILS AND SALTS THEREOF, AND USE THEREOF AS HERBICIDAL ACTIVE SUBSTANCES” (Bayer Aktiengesellschaft, priority 2020, published 2024).

Tests used:
Assay type in all cases: in vivo
[1] = test system: Abutilon theophrasti (ABUTH); assay: Post-emergence herbicidal action, greenhouse pot test; conditions: rated visually after about 3 weeks vs untreated controls, 100% = plants have died
Procedure: (§1) Seeds of monocotyledonous and dicotyledonous weeds and crop plants were placed in sandy loam in plastic or wood-fiber pots, covered with soil and cultivated in a greenhouse under controlled growth conditions. 2 to 3 weeks after sowing, the test plants were treated at the one-leaf stage. The compounds of the invention, formulated in the form of wettable powders (WP) or as emulsion concentrates (EC), were then sprayed onto the green parts of the plants as aqueous suspension or emulsion with addition of 0.5% additive at a water application rate of 600 l/ha (converted). After the test plants had been kept in the greenhouse under optimum growth conditions for about 3 weeks, the activity of the preparations was rated visually in comparison to untreated controls. For example, 100% activity=the plants have died, 0% activity=like control plants.
(§2) Tables A1 to A14 below show the effects of selected compounds of the general formula (I) according to Tables I.1 to I.33 on various harmful plants and at an application rate corresponding to 20 g/ha and less, which were obtained by the experimental method specified above. The appendices “a”, “b” and “c” give differentiation by different dosage with otherwise the same harmful plants tested.

[2] = test system: Amaranthus retroflexus (AMARE); assay: as above; conditions: rated visually after about 3 weeks vs untreated controls, 100% = plants have died
Procedure: as §1, §2

Avena fatua (AVEFA) = assay: as above; conditions: 20 g/ha, rated visually after about 3 weeks vs untreated controls, 100% = plants have died
Procedure: as §1, §2

[3] = test system: Pharbitis purpurea (PHBPU); assay: as above
Procedure: as §1, §2

[4] = test system: Polygonum convolvulus (POLCO); assay: as above
Procedure: as §1, §2

Veronica persica (VERPE) = assay: as above
Procedure: as §1, §2

Viola tricolor (VIOTR) = assay: as above
Procedure: as §1, §2

[5] = test system: Alopecurus myosuroides (ALOMY); assay: Post-emergence herbicidal action, greenhouse pot test (also comparative test C); conditions: rated visually after about 3 weeks vs untreated controls, 100% = plants have died
Procedure: as §1, §2
(§3) C. Comparative Herbicidal Action and Crop Plant Compatibility of Two Inventive Compounds (I.7-1 and I.7-115) with a Compound of Similar Structure Known from the Literature (WO2002/098227, a-17 and EP1106607, 3-14) in Post-Emergence Treatment.
(§4) Tables C1-C4 below show the effects of two inventive compounds (I.7-1 and I.7-115) together with a compound of similar structure known from the literature (a-17 in WO2002/098227, and 3-14 in EP1106607) in different crop plants at an application rate corresponding to 5 g/ha or less, which have been obtained by the aforementioned experimental procedure.

[6] = test system: Echinochloa crus-galli (ECHCG); assay: as above
Procedure: as §1, §2, §3, §4

[7] = test system: Matricaria inodora (MATIN); assay: as above
Procedure: as §1, §2, §3, §4

Setaria viridis (SETVI) = assay: as above; conditions: for Post-emergence action against SETVI: 20 g/ha
Procedure: as §1, §2, §3, §4

[8] = test system: Triticum aestivum (TRZAS); assay: Post-emergence crop plant compatibility, greenhouse pot test; conditions: vs untreated controls
Procedure: as §1
(§5) The observed effects on selected crop plants are reported here in comparison to the untreated controls (values in %). The appendices “a”, “b” and “c” give differentiation by different dosage with otherwise the same crop plants tested.

Oryza sativa (ORYSA) = assay: Post-emergence crop plant compatibility, greenhouse pot test (also comparative test C); conditions: for Post-emergence action against ORYSA (crop plant compatibility): vs untreated controls
Procedure: as §1, §5, §3

Zea mays (ZEAMX) = assay: Post-emergence crop plant compatibility, greenhouse pot test; conditions: 1.25 g/ha, vs untreated controls
Procedure: as §1, §5

| SMILES | Post-emergence action at 5 g/ha against ABUTH in % [1] [%] | Post-emergence action at 20 g/ha against ABUTH in % [1] [%] | Post-emergence action at 1.25 g/ha against AMARE in % [2] [%] | Post-emergence action at 5 g/ha against AMARE in % [2] [%] | Post-emergence action at 20 g/ha against AMARE in % [2] [%] | Post-emergence action against PHBPU in % ([3]; dosage 5 g/ha) [%] | Post-emergence action against PHBPU in % ([3]; dosage 20 g/ha) [%] | Post-emergence action against POLCO in % ([4]; dosage 5 g/ha) [%] | Post-emergence action against POLCO in % ([4]; dosage 20 g/ha) [%] | Post-emergence action against VERPE (Veronica persica (VERPE); 5 g/ha) [%] | Post-emergence action against VERPE (Veronica persica (VERPE); 20 g/ha) [%] | Post-emergence action against VIOTR (Viola tricolor (VIOTR); 1.25 g/ha) [%] | Post-emergence action against VIOTR (Viola tricolor (VIOTR); 5 g/ha) [%] | Post-emergence action against VIOTR (Viola tricolor (VIOTR); 20 g/ha) [%] | Post-emergence action at 20 g/ha against ALOMY in % [5] [%] | Post-emergence action against ECHCG in % ([6]; dosage 5 g/ha) [%] | Post-emergence action against ECHCG in % ([6]; dosage 20 g/ha) [%] | Post-emergence action against MATIN in % ([7]; dosage 5 g/ha) [%] | Post-emergence action against MATIN in % ([7]; dosage 20 g/ha) [%] | Post-emergence action against SETVI (Setaria viridis (SETVI)) [%] | other results |
| --- | --- | --- | --- | --- | --- | --- | --- | --- | --- | --- | --- | --- | --- | --- | --- | --- | --- | --- | --- | --- | --- |
| Cn1c(C(F)(F)F)cc(=O)n(-c2cc(Oc3ccccc3OCC(=O)OCC[N+](=O)[O-])c(Br)cc2F)c1=O [I.8-183] | 100 | 100 | 100 | 100 | 100 | 100 | 100 | 100 | 100 | 100 | 100 | 100 | 100 | 100 | 100 | 100 | 100 | 80 | 100 | 100 | Post-emergence action at 20 g/ha against AVEFA in % (Avena fatua (AVEFA)): 100%; Post-emergence action at 5 g/ha against ALOMY in % ([5]; 5 g/ha): 80%; Post-emergence action against SETVI in % (Setaria viridis (SETVI); dosage 1.25 g/ha): 100%; Post-emergence action against SETVI in % (Setaria viridis (SETVI); dosage 5 g/ha): 100%; Post-emergence action against TRZAS (crop plant compatibility) ([8]; 1.25 g/ha): 0%; Post-emergence action against TRZAS (crop plant compatibility) ([8]; 5 g/ha): 20%; Post-emergence action against ORYSA (crop plant compatibility) (Oryza sativa (ORYSA); 1.25 g/ha): 0%; Post-emergence action against ORYSA (crop plant compatibility) (Oryza sativa (ORYSA); 5 g/ha): 0%; Post-emergence action against ORYSA in % (Oryza sativa (ORYSA); 20 g/ha, crop plant compatibility): 0% |
| Cn1c(C(F)(F)F)cc(=O)n(-c2cc(Oc3c(F)cccc3OCC(=O)OCc3ccccn3)c(Cl)cc2F)c1=O [I.19-276] | 100 | 100 | 100 | 100 | 100 | 100 | 100 | 100 | 100 | 100 | 100 | 100 | 100 | 100 | 90 | 100 | 100 | 100 | 100 | 100 | Post-emergence action at 1.25 g/ha against ABUTH in % ([1]; 1.25 g/ha): 100%; Post-emergence action against VERPE (Veronica persica (VERPE); 1.25 g/ha): 100%; Post-emergence action against SETVI in % (Setaria viridis (SETVI); dosage 1.25 g/ha): 100%; Post-emergence action against SETVI in % (Setaria viridis (SETVI); dosage 5 g/ha): 100%; Post-emergence action against TRZAS (crop plant compatibility) ([8]; 1.25 g/ha): 20%; Post-emergence action against ZEAMX (crop plant compatibility) (Zea mays (ZEAMX)): 20%; Post-emergence action against ORYSA (crop plant compatibility) (Oryza sativa (ORYSA); 1.25 g/ha): 0%; Post-emergence action against ORYSA (crop plant compatibility) (Oryza sativa (ORYSA); 5 g/ha): 0% |
